Tests used:
15-PGDH = target: T1, 15-PGDH (Homo sapiens, UniProt P15428); experiment: Test on 15-PGDH (spectrophotometric, 340 nm, PGE2 and NAD); type: biochemical; conditions: for IC50: pH 7.4 Tris buffer, 37° C., 50 μM prostaglandin E2, read-out: Inhibition of 15-PGDH IC50dh
T1 construct: made in house
T1 sequence (P15428 1-266): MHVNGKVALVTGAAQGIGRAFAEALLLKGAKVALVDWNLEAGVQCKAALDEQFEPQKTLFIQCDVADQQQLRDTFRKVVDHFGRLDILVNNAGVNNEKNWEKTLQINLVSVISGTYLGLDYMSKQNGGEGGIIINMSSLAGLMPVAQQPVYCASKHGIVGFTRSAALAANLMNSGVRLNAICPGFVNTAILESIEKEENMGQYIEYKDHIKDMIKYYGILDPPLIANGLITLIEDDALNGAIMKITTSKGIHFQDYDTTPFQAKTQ
Method: The enzyme 15-PGDH is obtained as described in patent application FR 02/05067 filed in the name of L'Oreal, as a suspension in a medium adjusted to a concentration of 0.3 mg/ml and then blocked at −80° C. For the purposes of the test, this suspension is thawed and stored in ice.
In parallel, a 100 mM, pH 7.4 Tris buffer containing 0.1 mM of dithiothreitol (D5545, Sigma-Aldrich, L'isle D'Abeau Chesne, BP 701, 38297, Saint Quentin Fallavier), 1.5 mM of P-NAD (N6522, Sigma-Aldrich, L'isle D'Abeau Chesne, BP 701, 38297, Saint Quentin Fallavier), and 50 μM of prostaglandin E2 (P4172, Sigma-Aldrich, L'isle D'Abeau Chesne, BP 701, 38297, Saint Quentin Fallavier) is prepared.
(§1) 0.965 ml of this buffer (brought to 37° C. beforehand) is introduced into the cuvette of a spectrophotometer (Perkin-Elmer, Lambda 2) thermostatically maintained at 37° C., the measuring wavelength of which is set at 340 nm. 0.035 ml of enzymatic suspension at 37° C. is introduced into the cuvette concomitantly with the recording (corresponding to an increase in the optical density at 340 nm). The maximum reaction rate is recorded.

PGF synthase = target: T2, PGF synthase (Homo sapiens, UniProt P42330); experiment: Test on PGF synthase (spectrophotometric, 340 nm, 9,10-phenanthrenequinone and NADPH); type: biochemical; conditions: pH 6.5 Tris buffer, 37° C., 20 μM 9,10-phenanthrenequinone, 100 μM β-NADPH; read-out: Inhibition of PGF synthase IC50fs
T2 construct: made in house
T2 sequence (P42330 1-323): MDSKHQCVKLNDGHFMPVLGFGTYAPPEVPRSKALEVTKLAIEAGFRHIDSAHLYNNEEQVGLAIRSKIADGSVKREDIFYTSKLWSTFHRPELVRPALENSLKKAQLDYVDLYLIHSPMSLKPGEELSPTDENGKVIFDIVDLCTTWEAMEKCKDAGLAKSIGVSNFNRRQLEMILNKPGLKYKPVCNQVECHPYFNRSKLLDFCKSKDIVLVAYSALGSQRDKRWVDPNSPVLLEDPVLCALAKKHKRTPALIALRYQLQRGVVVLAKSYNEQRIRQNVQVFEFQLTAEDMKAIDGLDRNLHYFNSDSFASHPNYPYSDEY
Method: The enzyme PGFS is obtained as described in document FR-A-02/05067, at a concentration of 0.5 mg/ml, as a suspension in a suitable medium, and blocked at −80° C. For the purposes of the test, this suspension is thawed and stored in ice.
In parallel, a 100 mM, pH 6.5 Tris buffer containing 20 μm of 9,10-phenanthrenequinone* (P2896, Sigma-Aldrich, L'isle D'Abeau Chesne, BP 701, 38297, Saint Quentin Fallavier) and 100 μM of β-NADPH (N1630, Sigma-Aldrich, L'isle D'Abeau Chesne, BP 701, 38297, Saint Quentin Fallavier) is prepared in a brown flask (protected from light).
*A stock solution with a titre of 1 mM is prepared in absolute ethanol and brought to 40° C.; the flask is placed in an ultrasound tank to facilitate the dissolution of the product.
as §1, with “0.950” for “0.965”, “0.05” for “0.035”, “a reduction” for “an increase”
The test values (containing compound (I)) are compared with the control value (without compound (I)); the results indicated represent the concentration at which compound (I) inhibits 50% of the enzymatic activity of PGFS, noted as IC50fs.

| SMILES | IC50 (15-PGDH) [µM] | IC50 (PGF synthase) [µM] | Selectivity (IC50fs/IC50dh ratio) (15-PGDH; 15-PGDH relative to PGF synthase) |
| --- | --- | --- | --- |
| N#C/C(=C\c1c(Cl)cccc1Cl)c1nn(CCO)c(N)c1C#N [Compound 1a] | 3 | > 50 |  |
| N#C/C(=C\c1c(Cl)cccc1Cl)c1nn(-c2ccccc2)c(N)c1C#N [Compound 6] | 0.8 | > 50 |  |
| N#C/C(=C\c1ccccc1)c1nn(-c2ccccc2)c(N)c1C#N [Compound 8] | 50 | > 75 | >1.5 |

The remaining compounds from weak to strong by IC50 (15-PGDH), led by results:

| IC50 (15-PGDH) [µM] | IC50 (PGF synthase) [µM] | Selectivity (IC50fs/IC50dh ratio) (15-PGDH; 15-PGDH relative to PGF synthase) | SMILES |
| --- | --- | --- | --- |
| 5 |  |  | COc1ccccc1/C=C(\C#N)c1nn(-c2ccccc2)c(N)c1C#N [Compound 9] |
| 3 | > 50 |  | N#C/C(=C\c1ccccc1Cl)c1nn(-c2ccccc2)c(N)c1C#N [Compound 7] |
